Data as given in patent US8623904B2, “Use of tetramic acid derivatives for controlling pests by watering or droplet application” (Bayer CropScience AG, priority 2007, dated 2014).

Key:
Leveillula taurica = assay: Drench application to bell pepper plants, natural infection with Leveillula taurica, efficacy by Abbott formula; type: in vivo; details: 240 SC, watered 50 ml, bell pepper "Shishitou aoi", 21 days after treatment
Description: 8 plots each 2.25 m^2 in size with bell pepper plants of the cultivar “Shishitou aoi” are, in two replications, watered with 50 ml of an active compound solution comprising the active compound (II) (formulation: 240 SC) at the stated application rate. Following a severe natural infection with Leveillula taurica, evaluation is carried out 21 days after the treatment by determining the efficacy using the Abbott formula*.
(§1) Calculation of the efficacy according to Abbott:
(§2) [formula] where X=value for the control and Y=value for the compound tested

Oidium Iycopersicum = assay: Drench application to tomato plants on rock wool, infection with powdery mildew Oidium Iycopersicum, efficacy by Abbott formula; type: in vivo; details: 40 mg of active compound/plant, 240 SC, watered 100 ml; for Efficacy (% Abbott) against Oidium Iycopersicum 14 d: 14 d after infection; for Efficacy (% Abbott) against Oidium Iycopersicum 23 d: 23 d after infection; for Efficacy (% Abbott) against Oidium Iycopersicum 28 d new growth / Efficacy (% Abbott) against Oidium Iycopersicum 28 d old leaves: 28 d after infection
Description: In each case three tomato plants of the cultivar “Hoffmanns Rendita” on rock wool are, in two replications, watered one week after transplantation with in each case 100 ml of active compound solution comprising the active compound (II) (formulation: 240 SC) at the stated application rate. The greenhouse temperature is 20° C. during the day and 17° C. at night. Infection with the powdery mildew Oidium Iycopersicum is in each case carried out two and seven days after the active compound application. Evaluation is in each case carried out 14, 23, 28, 35 days after the respective infection by determining the efficacy on the old leaves and the new growth using the Abbott formula*.
as §1, §2

Compound: CCOC(=O)OC1=C(c2cc(C)ccc2C)C(=O)N[C@]12CC[C@@H](OC)CC2 [Active compound (II)]
- Efficacy (% Abbott) against Leveillula taurica 21 d (Leveillula taurica; 40 mg of active compound/plant): 87.4 % Abbott
- Efficacy (% Abbott) against Leveillula taurica 21 d (Leveillula taurica; 60 mg of active compound/plant): 100 % Abbott
- Efficacy (% Abbott) against Leveillula taurica 21 d (Leveillula taurica; 80 mg of active compound/plant): 100 % Abbott
- Efficacy (% Abbott) against Oidium Iycopersicum 14 d (Oidium Iycopersicum; 2 d prior to infection): 33 % Abbott
- Efficacy (% Abbott) against Oidium Iycopersicum 23 d (Oidium Iycopersicum; 2 d prior to infection): 40 % Abbott
- Efficacy (% Abbott) against Oidium Iycopersicum 28 d new growth (Oidium Iycopersicum; 2 d prior to infection): 65 % Abbott
- Efficacy (% Abbott) against Oidium Iycopersicum 28 d old leaves (Oidium Iycopersicum; 2 d prior to infection): 41 % Abbott
- Efficacy (% Abbott) against Oidium Iycopersicum 14 d (Oidium Iycopersicum; 7 d prior to infection): 45 % Abbott
- Efficacy (% Abbott) against Oidium Iycopersicum 23 d (Oidium Iycopersicum; 7 d prior to infection): 45 % Abbott
- Efficacy (% Abbott) against Oidium Iycopersicum 28 d new growth (Oidium Iycopersicum; 7 d prior to infection): 77 % Abbott
- Efficacy (% Abbott) against Oidium Iycopersicum 28 d old leaves (Oidium Iycopersicum; 7 d prior to infection): 45 % Abbott
